Legend:
Assay type in all cases: biochemical
PtmJ = molecular target: T1, PtmJ (Streptomyces pactum, UniProt A8R0J5); assay: mass spectrometry of GlcNAc-3ABA-SNAC; conditions: donor UDP-GlcNAc
T1 sequence (A8R0J5 1-318): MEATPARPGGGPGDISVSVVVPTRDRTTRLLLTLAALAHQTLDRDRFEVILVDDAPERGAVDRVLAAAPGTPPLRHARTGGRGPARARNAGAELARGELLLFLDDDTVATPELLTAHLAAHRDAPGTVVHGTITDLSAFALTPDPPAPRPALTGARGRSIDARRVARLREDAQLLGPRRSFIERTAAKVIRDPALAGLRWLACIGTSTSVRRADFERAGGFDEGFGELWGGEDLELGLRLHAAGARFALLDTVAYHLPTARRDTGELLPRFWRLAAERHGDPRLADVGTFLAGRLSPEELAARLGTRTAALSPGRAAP

PtmS = molecular target: T2, PtmS (Streptomyces pactum, UniProt B7TWM6); assay: HPLC and LC-MS of 3ABA-AMP; conditions: MgCl2 5 mM, Tris-HCl pH 8.0, 30 °C
T2 sequence (B7TWM6 1-505): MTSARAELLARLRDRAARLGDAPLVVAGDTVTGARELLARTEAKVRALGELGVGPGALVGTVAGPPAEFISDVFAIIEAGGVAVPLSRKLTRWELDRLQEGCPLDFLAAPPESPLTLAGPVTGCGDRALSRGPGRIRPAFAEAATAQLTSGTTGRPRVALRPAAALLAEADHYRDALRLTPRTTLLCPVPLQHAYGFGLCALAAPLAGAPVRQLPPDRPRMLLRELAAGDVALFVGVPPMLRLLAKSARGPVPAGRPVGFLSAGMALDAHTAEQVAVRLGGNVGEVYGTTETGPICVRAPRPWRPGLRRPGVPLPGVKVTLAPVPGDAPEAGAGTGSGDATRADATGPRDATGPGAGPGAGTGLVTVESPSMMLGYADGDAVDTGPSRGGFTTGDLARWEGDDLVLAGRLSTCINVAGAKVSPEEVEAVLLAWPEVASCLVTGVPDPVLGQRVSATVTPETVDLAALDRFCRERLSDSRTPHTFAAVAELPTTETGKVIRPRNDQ

PtmI = molecular target: T3, PtmI (Streptomyces pactum, UniProt A8R0J4); assay: LC-MS of intact protein; conditions: covalent; holo-PtmI 200 μM, malonyl-CoA 8 mM, Tris-HCl pH 8.0, 30 °C
T3 sequence (A8R0J4 1-94): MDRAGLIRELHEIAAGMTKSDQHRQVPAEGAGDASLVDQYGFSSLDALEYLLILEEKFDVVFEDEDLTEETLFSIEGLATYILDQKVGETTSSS

With CC(=O)NCCSC(=O)c1cccc(N)c1 [3ABA-SNAC] the “mass spectrometry of GlcNAc-3ABA-SNAC” value (PtmJ) was “PtmJ reaction mixture showing that 3ABA-SNAC can be glycosylated to give GlcNAc-3ABA-SNAC”.

For Nc1ncnc2c1ncn2[C@@H]1O[C@H](COP(=O)(O)OP(=O)(O)OP(=O)(O)O)[C@@H](O)[C@H]1O [ATP], the “HPLC and LC-MS of 3ABA-AMP; coupled pyrophosphate assay” value (PtmS; 3ABA 2 mM) was “incubated with 3ABA in the presence of ATP and MgCl2 to give 3-aminobenzoyl-AMP (3ABA-AMP)”.

Nc1cccc(C(=O)O)c1 [compound 3, 3-aminobenzoic acid] was tested, and the “HPLC and LC-MS of 3ABA-AMP; coupled pyrophosphate assay” value (PtmS; ATP 5 mM) was “the purified protein was incubated with 3ABA in the presence of ATP and MgCl2”.

CC(C)(COP(=O)(O)OP(=O)(O)OC[C@H]1O[C@@H](n2cnc3c(N)ncnc32)[C@H](O)[C@@H]1OP(=O)(O)O)[C@@H](O)C(=O)NCCC(=O)NCCSC(=O)CC(=O)O [malonyl-CoA] was tested, and the “LC-MS of intact protein (malonyl-PtmI, self-acylation)” value (PtmI) was “Incubation of the holo-PtmI with malonyl-CoA (Figure 3a) also led to the formation of malonyl-PtmI”.
